The record followed here is US8987510B2, “Method for removal of the cyclic diester of a 2-hydroxy alkanoic acid from a vapor” (Purac Biochem BV, priority 2011, dated 2015).

The nature of data set [1]: solubility behavior of mandelide in neutral, acid and alkaline aqueous solution, visual inspection. Format: physicochemical. To be noted: 2% by weight mandelide, 20° C., stirred. From the text: In additional experiments according to the present invention, the lactide was replaced by mandelide, the cyclic diester of 2-hydroxy-2-phenylacetic acid (also known as mandelic acid). The solubility behavior of mandelide in a neutral solution, an acid solution and an alkaline solution has been monitored and mutually compared. For this purpose, the acid aqueous solution was made by dissolving 10% by weight of mandelic acid in water. An alkaline aqueous solution was made by adding NaOH until a pH of 13 was reached. The neutral aqueous solution consisted of pure, non-buffered water. To these three aqueous solutions, an amount of 2% by weight of mandelide was added. All solutions were kept at 20° C. and stirred for several hours. In this period of time, the solubility behavior of the mandelide in the aqueous solutions was followed by visual inspection.

Data set [2] can be described thus: formation of lactide precipitates in circulating aqueous washing solution contacted with lactide-containing vapor.
Excerpt: In a first experiment according to the invention, a vapor which contains lactide (i.e. the dehydrated cyclic diester of lactic acid or 2-hydroxy propanoic acid) is guided via vapor inlet pipeline 1 into wet washing column 2 shown in FIG. 1. […] Column 2 comprises packed bed 3, which extends over the whole internal diameter of the column. The column is further equipped with a vapor outlet pipeline 4 and a liquid distributor 5. The vapor travels through packed bed 3 and exits the column via vapor outlet pipeline 4. […] Pump 6 further sucks the vapor containing the cyclic diester, such as lactide, from inlet pipeline 1, through column 2, packed bed 3 and outlet line 4 to an exhaust collection system (not shown).
Column 2 further comprises a liquid storage compartment 7, which contains an aqueous solution. Additional liquid can be introduced in compartment 7 via liquid inlet pipeline 8. […] This solution is circulated through a liquid circulation system comprising liquid circulation pipeline 9, which circulation is powered by liquid pump 10. In practice, the aqueous solution is pumped from the liquid storage compartment 7 via pipeline 9 and heat exchanger 11 to liquid distributor 5. In distributor 5, the alkaline solution is converted from a liquid stream into small droplets. These droplets fall onto and distribute over the upper surface 12 of packed bed 3. Due to gravity, the droplets of the aqueous solution travel through packed bed 3 and fall in the aqueous solution present in storage compartment 7. The size of compartment 7 depends on residence time required under the operation conditions used.
During the whole experiment, the pH of the solution was maintained above 10. This was achieved by the addition of a base. In the present experiment, sodium hydroxide was used as the base. It appeared to be advantageous to add the base continuously, preferably in liquid form. For this experiment, a commercially available stock solution of 50 w/w-% of NaOH in water (Brenntag, technical grade) was used. […]

On to `O=C1OC(c2ccccc2)C(=O)OC1c1ccccc1` (stereo not drawn) [mandelide], for which the “mandelide dissolved after 60 minutes” value in data set [1] (acid solution (10% by weight mandelic acid in water)) is recorded as “almost all of the added mandelide was still not dissolved”; in data set [1] (neutral solution (pure, non-buffered water)), “not been dissolved at all”. The “added mandelide dissolved after 60 minutes” value in data set [1] (alkaline solution (NaOH, pH 13)) is on record as “approximately 50%”.
In the case of `CC1OC(=O)C(C)OC1=O` (stereo not drawn) [lactide], the lactide precipitates result is “no lactide precipitates have been observed” in data set [2] (alkaline aqueous solution, above pH 10, NaOH, around 15° C., approximately 15 mbar); “formation of small lactide precipitates can occur” in data set [2] (alkaline aqueous solution, pH between 7 and 10); “part of the dissolved lactide precipitates” in data set [2] (comparative: starting pH approximately 7, no base, pH drops below 4).
